Assay results from US9708314B2, “Heterocyclic amide compound” (NISSAN CHEMICAL INDUSTRIES, LTD., priority 2013, dated 2017).

Experiments:
Type in all cases: in vivo
Veronica persica = test: Test Example 4: herbicidal effect by application to foliage (diluvial soil, plastic box); settings: for R (Veronica persica) herbicidal effect: application to foliage, application herbicide amount 320 g/ha; for R: Application herbicide amount 320 g/ha
Method in brief: (§1)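 Scores run from 0 (herbicidal ratio ≤5%) to 5 (≥90%, almost fully withered) and were assessed three weeks after foliar spraying. Seedlings had been raised for 14 days at 25-30° C in sterilized diluvial soil before treatment, with the emulsion diluted in water to the stated g/ha dose.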

Digitaria ciliaris = test: as above; settings: for F (Digitaria ciliaris) herbicidal effect: application to foliage, application herbicide amount 320 g/ha; for F: Application herbicide amount 320 g/ha
Method in brief: as §1

Alopecurus myosuroides = test: as above; settings: for J (Alopecurus myosuroides) herbicidal effect: application to foliage, application herbicide amount 320 g/ha; for J: Application herbicide amount 320 g/ha
Method in brief: as §1

Avena fatua = test: as above; settings: for I (Avena fatua) herbicidal effect: application to foliage, application herbicide amount 320 g/ha; for I: Application herbicide amount 320 g/ha
Method in brief: as §1

Galium spurium = test: as above; settings: for Q (Galium spurium) herbicidal effect: application to foliage, application herbicide amount 320 g/ha; for Q: Application herbicide amount 320 g/ha
Method in brief: as §1

Abutilon theophrasti = test: as above; settings: for M (Abutilon theophrasti) herbicidal effect: application to foliage, application herbicide amount 320 g/ha; for M: Application herbicide amount 320 g/ha
Method in brief: as §1

Chenopodium album = test: as above; settings: for O (Chenopodium album) herbicidal effect: application to foliage, application herbicide amount 320 g/ha; for O: Application herbicide amount 320 g/ha
Method in brief: as §1

Lolium multiflorum Lam. = test: as above; settings: for K (Lolium multiflorum Lam.) herbicidal effect: application to foliage, application herbicide amount 320 g/ha; for K: Application herbicide amount 320 g/ha
Method in brief: as §1

Apera spica-venti. = test: as above; settings: for L (Apera spica-venti.) herbicidal effect: application to foliage, application herbicide amount 320 g/ha; for L: Application herbicide amount 320 g/ha
Method in brief: as §1

[1] = system: Echinochloa crus-galli var. crus-galli; test: as above; settings: for H (Echinochloa crus-galli var. crus-galli) herbicidal effect: application to foliage, application herbicide amount 320 g/ha; for H: Application herbicide amount 320 g/ha
Method in brief: as §1

Setaria viridis = test: as above; settings: for G (Setaria viridis) herbicidal effect: application to foliage, application herbicide amount 320 g/ha; for G: Application herbicide amount 320 g/ha
Method in brief: as §1

Leptochloa chinensis = test: Test Example 3: herbicidal effect by application to foliage (Wagner pot, water depth 0.1-0.5 cm); settings: Nineteenth Table, application herbicide amount 320 g/ha; for D (herbicidal effect grade): application to foliage
Method in brief: (§2)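 Greenhouse pot test, 25–30 °C, alluvial soil. Sown seedlings grown 14 days then sprayed on leaves and stems with emulsion diluted to target g/ha. Rating at 3 weeks, 0–5 scale (0 ≤5%, 5 ≥90%).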

Cyperus difformis = test: as above; settings: Nineteenth Table, application herbicide amount 320 g/ha; for E (herbicidal effect grade): application to foliage
Method in brief: as §2

[2] = system: Echinochloa crus-galli var. crus-galli; test: as above; settings: Nineteenth Table, application herbicide amount 320 g/ha; for H (herbicidal effect grade): application to foliage
Method in brief: as §2

Cc1nnc(NC(=O)c2ccc(C(F)(F)F)n3c(C[S+]([O-])CC(F)(F)F)nnc23)o1 (stereo not shown) [1-038]
R (Veronica persica) herbicidal effect (Veronica persica): 5 (Herbicidal ratio of 90% or more (almost completely withered))
F (Digitaria ciliaris) herbicidal effect (Digitaria ciliaris): 5 (Herbicidal ratio of 90% or more (almost completely withered))
J (Alopecurus myosuroides) herbicidal effect (Alopecurus myosuroides): 1 (Herbicidal ratio of 5% or more and less than 20%)
I (Avena fatua) herbicidal effect (Avena fatua): 3 (Herbicidal ratio of 40% or more and less than 70%)
Q (Galium spurium) herbicidal effect (Galium spurium): 3 (Herbicidal ratio of 40% or more and less than 70%)
M (Abutilon theophrasti) herbicidal effect (Abutilon theophrasti): 5 (Herbicidal ratio of 90% or more (almost completely withered))
O (Chenopodium album) herbicidal effect (Chenopodium album): 5 (Herbicidal ratio of 90% or more (almost completely withered))
K (Lolium multiflorum Lam.) herbicidal effect (Lolium multiflorum Lam.): 1 (Herbicidal ratio of 5% or more and less than 20%)
L (Apera spica-venti.) herbicidal effect (Apera spica-venti.): 2 (Herbicidal ratio of 20% or more and less than 40%)
H (Echinochloa crus-galli var. crus-galli) herbicidal effect [1]: 5 (Herbicidal ratio of 90% or more (almost completely withered))
G (Setaria viridis) herbicidal effect (Setaria viridis): 5 (Herbicidal ratio of 90% or more (almost completely withered))
D (Leptochloa chinensis) herbicidal ratio grade (Leptochloa chinensis): 5 (Herbicidal ratio of 90% or more (almost completely withered))
E (Cyperus difformis) herbicidal ratio grade (Cyperus difformis): 4 (Herbicidal ratio of 70% or more and less than 90%)
H (Echinochloa crus-galli var. crus-galli) herbicidal ratio grade [2]: 5 (Herbicidal ratio of 90% or more (almost completely withered))

Cc1nnc(NC(=O)c2ccc(C(F)(F)F)n3c(-c4ccc(Cl)cc4)nnc23)o1 [1-017]
R (Veronica persica) herbicidal effect (Veronica persica): 4 (Herbicidal ratio of 70% or more and less than 90%)
F (Digitaria ciliaris) herbicidal effect (Digitaria ciliaris): 3 (Herbicidal ratio of 40% or more and less than 70%)
J (Alopecurus myosuroides) herbicidal effect (Alopecurus myosuroides): 0 (Herbicidal ratio of 5% or less (almost no effect))
I (Avena fatua) herbicidal effect (Avena fatua): 0 (Herbicidal ratio of 5% or less (almost no effect))
Q (Galium spurium) herbicidal effect (Galium spurium): 0 (Herbicidal ratio of 5% or less (almost no effect))
M (Abutilon theophrasti) herbicidal effect (Abutilon theophrasti): 5 (Herbicidal ratio of 90% or more (almost completely withered))
O (Chenopodium album) herbicidal effect (Chenopodium album): 5 (Herbicidal ratio of 90% or more (almost completely withered))
K (Lolium multiflorum Lam.) herbicidal effect (Lolium multiflorum Lam.): 0 (Herbicidal ratio of 5% or less (almost no effect))
L (Apera spica-venti.) herbicidal effect (Apera spica-venti.): 0 (Herbicidal ratio of 5% or less (almost no effect))
H (Echinochloa crus-galli var. crus-galli) herbicidal effect [1]: 5 (Herbicidal ratio of 90% or more (almost completely withered))
G (Setaria viridis) herbicidal effect (Setaria viridis): 0 (Herbicidal ratio of 5% or less (almost no effect))
D (Leptochloa chinensis) herbicidal ratio grade (Leptochloa chinensis): 3 (Herbicidal ratio of 40% or more and less than 70%)
E (Cyperus difformis) herbicidal ratio grade (Cyperus difformis): 4 (Herbicidal ratio of 70% or more and less than 90%)
H (Echinochloa crus-galli var. crus-galli) herbicidal ratio grade [2]: 4 (Herbicidal ratio of 70% or more and less than 90%)

Cc1nnc(NC(=O)c2ccc(C(F)(F)F)n3c(Br)nnc23)o1 [1-014]
R (Veronica persica) herbicidal effect (Veronica persica): 4 (Herbicidal ratio of 70% or more and less than 90%)
F (Digitaria ciliaris) herbicidal effect (Digitaria ciliaris): 3 (Herbicidal ratio of 40% or more and less than 70%)
J (Alopecurus myosuroides) herbicidal effect (Alopecurus myosuroides): 1 (Herbicidal ratio of 5% or more and less than 20%)
I (Avena fatua) herbicidal effect (Avena fatua): 1 (Herbicidal ratio of 5% or more and less than 20%)
Q (Galium spurium) herbicidal effect (Galium spurium): 3 (Herbicidal ratio of 40% or more and less than 70%)
M (Abutilon theophrasti) herbicidal effect (Abutilon theophrasti): 4 (Herbicidal ratio of 70% or more and less than 90%)
O (Chenopodium album) herbicidal effect (Chenopodium album): 5 (Herbicidal ratio of 90% or more (almost completely withered))
K (Lolium multiflorum Lam.) herbicidal effect (Lolium multiflorum Lam.): 1 (Herbicidal ratio of 5% or more and less than 20%)
L (Apera spica-venti.) herbicidal effect (Apera spica-venti.): 0 (Herbicidal ratio of 5% or less (almost no effect))
H (Echinochloa crus-galli var. crus-galli) herbicidal effect [1]: 4 (Herbicidal ratio of 70% or more and less than 90%)
G (Setaria viridis) herbicidal effect (Setaria viridis): 3 (Herbicidal ratio of 40% or more and less than 70%)
D (Leptochloa chinensis) herbicidal ratio grade (Leptochloa chinensis): 2 (Herbicidal ratio of 20% or more and less than 40%)
E (Cyperus difformis) herbicidal ratio grade (Cyperus difformis): 4 (Herbicidal ratio of 70% or more and less than 90%)
H (Echinochloa crus-galli var. crus-galli) herbicidal ratio grade [2]: 5 (Herbicidal ratio of 90% or more (almost completely withered))

Cc1nnc(NC(=O)c2ccc(C(F)(F)F)n3c(-c4cncs4)nnc23)o1 [1-058]
R (Veronica persica): 5 (Herbicidal ratio of 90% or more (almost completely withered))
F (Digitaria ciliaris): 5 (Herbicidal ratio of 90% or more (almost completely withered))
J (Alopecurus myosuroides): 3 (Herbicidal ratio of 40% or more and less than 70%)
I (Avena fatua): 3 (Herbicidal ratio of 40% or more and less than 70%)
Q (Galium spurium): 2 (Herbicidal ratio of 20% or more and less than 40%)
M (Abutilon theophrasti): 5 (Herbicidal ratio of 90% or more (almost completely withered))
O (Chenopodium album): 5 (Herbicidal ratio of 90% or more (almost completely withered))
K (Lolium multiflorum Lam.): 3 (Herbicidal ratio of 40% or more and less than 70%)
L (Apera spica-venti.): 2 (Herbicidal ratio of 20% or more and less than 40%)
H [1]: 5 (Herbicidal ratio of 90% or more (almost completely withered))
G (Setaria viridis): 5 (Herbicidal ratio of 90% or more (almost completely withered))
D (herbicidal effect grade) (Leptochloa chinensis): 5 (Herbicidal ratio of 90% or more (almost completely withered))
E (herbicidal effect grade) (Cyperus difformis): 5 (Herbicidal ratio of 90% or more (almost completely withered))
H (herbicidal effect grade) [2]: 5 (Herbicidal ratio of 90% or more (almost completely withered))

COc1cccc(Nc2nnc3c(C(=O)Nc4nnc(C)o4)ccc(C(F)(F)F)n23)n1 [1-102]
R (Veronica persica): 4 (Herbicidal ratio of 70% or more and less than 90%)
F (Digitaria ciliaris): 3 (Herbicidal ratio of 40% or more and less than 70%)
J (Alopecurus myosuroides): 0 (Herbicidal ratio of 5% or less (almost no effect))
I (Avena fatua): 0 (Herbicidal ratio of 5% or less (almost no effect))
Q (Galium spurium): 2 (Herbicidal ratio of 20% or more and less than 40%)
M (Abutilon theophrasti): 3 (Herbicidal ratio of 40% or more and less than 70%)
O (Chenopodium album): 5 (Herbicidal ratio of 90% or more (almost completely withered))
K (Lolium multiflorum Lam.): 0 (Herbicidal ratio of 5% or less (almost no effect))
L (Apera spica-venti.): 0 (Herbicidal ratio of 5% or less (almost no effect))
H [1]: 4 (Herbicidal ratio of 70% or more and less than 90%)
G (Setaria viridis): 3 (Herbicidal ratio of 40% or more and less than 70%)
D (herbicidal effect grade) (Leptochloa chinensis): 5 (Herbicidal ratio of 90% or more (almost completely withered))
E (herbicidal effect grade) (Cyperus difformis): 4 (Herbicidal ratio of 70% or more and less than 90%)
H (herbicidal effect grade) [2]: 4 (Herbicidal ratio of 70% or more and less than 90%)
